Measurements taken from the NIST ThermoML archive (doi:10.1016/j.jct.2005.03.019).

Test: xn = mol fraction of the nth substance listed
Conditions: 101 kPa, Liquid, Vibrating tube method

CC1COC(=O)O1 (configuration not stated) [4-methyl-1,3-dioxolan-2-one] + Cc1ccccc1
Conditions	mass density [kg/m3]
293.15 K, x2 = 0	1200.3
293.15 K, x2 = 0.0578	1177.7
293.15 K, x2 = 0.1279	1151
293.15 K, x2 = 0.1735	1133.9
293.15 K, x2 = 0.2387	1110
293.15 K, x2 = 0.3248	1079.4
293.15 K, x2 = 0.3891	1057.1
293.15 K, x2 = 0.4398	1039.9
293.15 K, x2 = 0.5179	1014
293.15 K, x2 = 0.5621	999.7
293.15 K, x2 = 0.6381	975.4
293.15 K, x2 = 0.7139	951.8
293.15 K, x2 = 0.7639	936.5
293.15 K, x2 = 0.8247	918.2
293.15 K, x2 = 0.8739	903.6
293.15 K, x2 = 0.9376	884.9
303.15 K, x2 = 0	1180.6
303.15 K, x2 = 0.0516	1161
303.15 K, x2 = 0.1211	1135.3
303.15 K, x2 = 0.1782	1114.7
303.15 K, x2 = 0.2298	1096.4
303.15 K, x2 = 0.2971	1073
303.15 K, x2 = 0.3565	1052.9
303.15 K, x2 = 0.4134	1034
303.15 K, x2 = 0.4681	1016.2
303.15 K, x2 = 0.5371	994.2
303.15 K, x2 = 0.6021	973.9
303.15 K, x2 = 0.6629	955.4
303.15 K, x2 = 0.7232	937.2
303.15 K, x2 = 0.7832	919.5
303.15 K, x2 = 0.8537	899.1
303.15 K, x2 = 0.9245	878.8
313.15 K, x2 = 0	1161.3
313.15 K, x2 = 0.0467	1144.2
313.15 K, x2 = 0.1274	1115.2
313.15 K, x2 = 0.1832	1095.7
313.15 K, x2 = 0.2572	1070.4
313.15 K, x2 = 0.3291	1046.5
313.15 K, x2 = 0.3938	1025.5
313.15 K, x2 = 0.4531	1006.7
313.15 K, x2 = 0.5291	983.2
313.15 K, x2 = 0.5919	964.2
313.15 K, x2 = 0.6472	947.7
313.15 K, x2 = 0.6938	934.1
313.15 K, x2 = 0.7524	917.2
313.15 K, x2 = 0.8138	899.7
313.15 K, x2 = 0.8623	886.1
313.15 K, x2 = 0.9427	863.9
323.15 K, x2 = 0	1142.4
323.15 K, x2 = 0.0592	1121.4
323.15 K, x2 = 0.114	1102.4
323.15 K, x2 = 0.1734	1082.1
323.15 K, x2 = 0.2378	1060.7
323.15 K, x2 = 0.3139	1036
323.15 K, x2 = 0.3681	1018.8
323.15 K, x2 = 0.4244	1001.4
323.15 K, x2 = 0.4711	987.1
323.15 K, x2 = 0.5137	974.3
323.15 K, x2 = 0.5828	954
323.15 K, x2 = 0.6528	933.8
323.15 K, x2 = 0.725	913.4
323.15 K, x2 = 0.7941	894.2
323.15 K, x2 = 0.8529	878.2
323.15 K, x2 = 0.9172	860.9
333.15 K, x2 = 0	1124
333.15 K, x2 = 0.0545	1105.2
333.15 K, x2 = 0.1287	1080.2
333.15 K, x2 = 0.1831	1062.3
333.15 K, x2 = 0.2417	1043.4
333.15 K, x2 = 0.3274	1016.5
333.15 K, x2 = 0.3818	999.9
333.15 K, x2 = 0.4383	983
333.15 K, x2 = 0.4819	970.1
333.15 K, x2 = 0.5381	953.9
333.15 K, x2 = 0.5821	941.3
333.15 K, x2 = 0.6421	924.5
333.15 K, x2 = 0.7138	904.8
333.15 K, x2 = 0.7832	886.1
333.15 K, x2 = 0.8527	867.7
333.15 K, x2 = 0.9323	846.9
343.15 K, x2 = 0	1106
343.15 K, x2 = 0.0613	1085.5
343.15 K, x2 = 0.1248	1064.7
343.15 K, x2 = 0.1822	1046.3
343.15 K, x2 = 0.2489	1025.5
343.15 K, x2 = 0.3011	1009.5
343.15 K, x2 = 0.3719	988.4
343.15 K, x2 = 0.458	963.3
343.15 K, x2 = 0.5043	950.2
343.15 K, x2 = 0.5729	931.1
343.15 K, x2 = 0.6429	912
343.15 K, x2 = 0.7041	895.7
343.15 K, x2 = 0.7634	880.1
343.15 K, x2 = 0.8241	864.4
343.15 K, x2 = 0.8721	852.2
343.15 K, x2 = 0.9347	836.3
353.15 K, x2 = 0	1088.4
353.15 K, x2 = 0.0524	1071.3
353.15 K, x2 = 0.1139	1051.6
353.15 K, x2 = 0.1942	1026.6
353.15 K, x2 = 0.2589	1007
353.15 K, x2 = 0.3238	987.8
353.15 K, x2 = 0.4035	964.9
353.15 K, x2 = 0.4598	949.1
353.15 K, x2 = 0.5243	931.4
353.15 K, x2 = 0.5825	915.7
353.15 K, x2 = 0.6359	901.6
353.15 K, x2 = 0.693	886.8
353.15 K, x2 = 0.7749	865.9
353.15 K, x2 = 0.8371	850.3
353.15 K, x2 = 0.8689	842.4
353.15 K, x2 = 0.9432	824.2
